In patent EP0908457B1, “3-(1,2-benzisothiazol- and isoxazol-5-Y1)-2,4(1H,3H)-pyrimidinedione or thione and 3-(1,2-benzisothiazol- and isoxazol-5-y1)-4(3H)-pyrimidinone or thione herbicidal agents” (BASF AKTIENGESELLSCHAFT, priority 1997, dated 1999):

How the values were obtained:
[1] = system: Echinochloa oryzoides (Ard.) Fritsch.; assay: Preemergence weed control under flooded paddy conditions, ECHORC (Watergrass (Calif.)); type: in vivo; settings: preemergence, flooded paddy, rated three to four weeks after treatment; also: meaning of each grade not given here
Cyperus iria [2] = assay: Preemergence weed control under flooded paddy conditions, CYPIR (Rice Flatsedge); type: in vivo; settings: preemergence, flooded paddy, rated three to four weeks after treatment; also: meaning of each grade not given here
[3] = system: Cyperus serotinus, Rottb.; assay: Preemergence weed control under flooded paddy conditions, CYPSE (Flatsedge); type: in vivo; settings: preemergence, rated three to four weeks after treatment; also: meaning of each grade not given here
[4] = system: Monochoria vaginalis, Presl.; assay: Preemergence weed control under flooded paddy conditions, MOOVA (Monochoria); type: in vivo; settings: preemergence, flooded paddy, rated three to four weeks after treatment; also: meaning of each grade not given here
Sagittaria pygmaea, L. [5] = assay: Preemergence weed control under flooded paddy conditions, SAGPY (Arrowhead (Pygmaea)); type: in vivo; settings: preemergence, flooded paddy, rated three to four weeks after treatment; also: meaning of each grade not given here
[6] = system: Echinochloa oryzoides (Ard.) Fritsch.; assay: Postemergence weed control under flooded paddy conditions, ECHORC (Watergrass (Calif.)); type: in vivo; settings: rated three to four weeks after treatment
Cyperus iria [7] = assay: Postemergence weed control under flooded paddy conditions, CYPIR (Rice Flatsedge); type: in vivo; settings: rated three to four weeks after treatment
[8] = system: Cyperus serotinus, Rottb.; assay: Postemergence weed control under flooded paddy conditions, CYPSE (Flatsedge); type: in vivo; settings: rated three to four weeks after treatment
[9] = system: Monochoria vaginalis, Presl.; assay: Postemergence weed control under flooded paddy conditions, MOOVA (Monochoria); type: in vivo; settings: rated three to four weeks after treatment
Sagittaria pygmaea, L. [10] = assay: Postemergence weed control under flooded paddy conditions, SAGPY (Arrowhead (Pygmaea)); type: in vivo; settings: rated three to four weeks after treatment
[11] = system: Oryza sativa, (L.) Tebonnet; assay: Rice tolerance to post-transplant applications under flooded paddy conditions (Example 187), ORYSAT (Rice, Tebonnet); settings: rated three to four weeks after treatment
[12] = system: Oryza sativa, (L.) Tebonnet; assay: Rice tolerance to post-transplant applications under flooded paddy conditions (Example 188), ORYSAT (Rice, Tebonnet); settings: rated three to four weeks after treatment

COC(=O)COc1ccc(C)cc1-c1nsc2ccc(-n3c(=O)cc(C(F)(F)F)n(C)c3=O)cc12 [Example 2, Methyl {{2-{5-[3,6-dihydro-3-methyl-4-(trifluoromethyl)-2,6-dioxo-1(2H)-pyrimidinyl]-1,2-benzisothiazol-3-yl}-p-tolyl}oxy}acetate]
4.0: herbicidal effect rating, SAGPY (Sagittaria pygmaea, L. [5]; 0.2500 kg/ha) | herbicidal effect rating, ECHORC ([6]; Rate 0.0313 kg/ha) | herbicidal effect rating, ECHORC ([6]; Rate 0.0625 kg/ha) | herbicidal effect rating, SAGPY (Sagittaria pygmaea, L. [10]; Rate 0.5000 kg/ha)
5.0: herbicidal effect rating, ORYSAT (rice tolerance) ([11]; 0.2500 kg/ha)
7.0: herbicidal effect rating, MOOVA ([4]; 0.0313 kg/ha) | herbicidal effect rating, ECHORC ([6]; Rate 0.1250 kg/ha) | herbicidal effect rating, ORYSAT (rice tolerance) ([12]; Rate 0.2500 kg/ha)
2.0: herbicidal effect rating, SAGPY (Sagittaria pygmaea, L. [5]; 0.1250 kg/ha) | herbicidal effect rating, SAGPY (Sagittaria pygmaea, L. [10]; Rate 0.2500 kg/ha) | herbicidal effect rating, ORYSAT (rice tolerance) ([11]; 0.0313 kg/ha) | herbicidal effect rating, ORYSAT (rice tolerance) ([12]; Rate 0.0313 kg/ha) | herbicidal effect rating, ORYSAT (rice tolerance) ([12]; Rate 0.0625 kg/ha)
8.0: herbicidal effect rating, CYPIR (Cyperus iria [2]; 0.0313 kg/ha) | herbicidal effect rating, ORYSAT (rice tolerance) ([12]; Rate 0.5000 kg/ha)
9.0: herbicidal effect rating, ECHORC ([1]; 0.0313 kg/ha) | herbicidal effect rating, ECHORC ([1]; 0.0625 kg/ha) | herbicidal effect rating, ECHORC ([1]; 0.1250 kg/ha) | herbicidal effect rating, ECHORC ([1]; 0.2500 kg/ha) | herbicidal effect rating, ECHORC ([1]; 0.5000 kg/ha) | herbicidal effect rating, CYPIR (Cyperus iria [2]; 0.0625 kg/ha) | herbicidal effect rating, CYPIR (Cyperus iria [2]; 0.1250 kg/ha) | herbicidal effect rating, CYPIR (Cyperus iria [2]; 0.2500 kg/ha) | herbicidal effect rating, CYPIR (Cyperus iria [2]; 0.5000 kg/ha) | herbicidal effect rating, MOOVA ([4]; 0.0625 kg/ha) | herbicidal effect rating, MOOVA ([4]; 0.1250 kg/ha) | herbicidal effect rating, MOOVA ([4]; 0.2500 kg/ha) | herbicidal effect rating, MOOVA ([4]; 0.5000 kg/ha) | herbicidal effect rating, SAGPY (Sagittaria pygmaea, L. [5]; 0.5000 kg/ha) | herbicidal effect rating, ECHORC ([6]; Rate 0.2500 kg/ha) | herbicidal effect rating, ECHORC ([6]; Rate 0.5000 kg/ha) | herbicidal effect rating, CYPIR (Cyperus iria [7]; Rate 0.0313 kg/ha) | herbicidal effect rating, CYPIR (Cyperus iria [7]; Rate 0.0625 kg/ha) | herbicidal effect rating, CYPIR (Cyperus iria [7]; Rate 0.1250 kg/ha) | herbicidal effect rating, CYPIR (Cyperus iria [7]; Rate 0.2500 kg/ha) | herbicidal effect rating, CYPIR (Cyperus iria [7]; Rate 0.5000 kg/ha) | herbicidal effect rating, MOOVA ([9]; Rate 0.0313 kg/ha) | herbicidal effect rating, MOOVA ([9]; Rate 0.0625 kg/ha) | herbicidal effect rating, MOOVA ([9]; Rate 0.1250 kg/ha) | herbicidal effect rating, MOOVA ([9]; Rate 0.2500 kg/ha) | herbicidal effect rating, MOOVA ([9]; Rate 0.5000 kg/ha) | herbicidal effect rating, ORYSAT (rice tolerance) ([11]; 0.5000 kg/ha)
0.0: herbicidal effect rating, CYPSE ([3]; 0.0313 kg/ha) | herbicidal effect rating, CYPSE ([3]; 0.0625 kg/ha) | herbicidal effect rating, CYPSE ([3]; 0.1250 kg/ha) | herbicidal effect rating, CYPSE ([3]; 0.2500 kg/ha) | herbicidal effect rating, CYPSE ([3]; 0.5000 kg/ha) | herbicidal effect rating, SAGPY (Sagittaria pygmaea, L. [5]; 0.0313 kg/ha) | herbicidal effect rating, SAGPY (Sagittaria pygmaea, L. [5]; 0.0625 kg/ha) | herbicidal effect rating, CYPSE ([8]; Rate 0.0313 kg/ha) | herbicidal effect rating, CYPSE ([8]; Rate 0.0625 kg/ha) | herbicidal effect rating, CYPSE ([8]; Rate 0.1250 kg/ha) | herbicidal effect rating, CYPSE ([8]; Rate 0.2500 kg/ha) | herbicidal effect rating, CYPSE ([8]; Rate 0.5000 kg/ha) | herbicidal effect rating, SAGPY (Sagittaria pygmaea, L. [10]; Rate 0.0313 kg/ha) | herbicidal effect rating, SAGPY (Sagittaria pygmaea, L. [10]; Rate 0.0625 kg/ha) | herbicidal effect rating, SAGPY (Sagittaria pygmaea, L. [10]; Rate 0.1250 kg/ha)
3.0: herbicidal effect rating, ORYSAT (rice tolerance) ([11]; 0.0625 kg/ha) | herbicidal effect rating, ORYSAT (rice tolerance) ([11]; 0.1250 kg/ha) | herbicidal effect rating, ORYSAT (rice tolerance) ([12]; Rate 0.1250 kg/ha)

COc1cc(C)ccc1-c1nsc2ccc(-n3c(=O)cc(C(F)(F)F)n(C)c3=O)cc12 [Example 7, 3-[3-(2-Methoxy-p-tolyl)-1,2-benzisothiazol-5-yl]-1-methyl-6-(trifluoromethyl)-2,4(1H,3H)-pyrimidinedione]
6.0: herbicidal effect rating, SAGPY (Sagittaria pygmaea, L. [5]; 0.0313 kg/ha) | herbicidal effect rating, CYPSE ([8]; Rate 0.0625 kg/ha) | herbicidal effect rating, ORYSAT (rice tolerance) ([11]; 0.0313 kg/ha)
4.0: herbicidal effect rating, SAGPY (Sagittaria pygmaea, L. [10]; Rate 0.1250 kg/ha)
0.0: herbicidal effect rating, SAGPY (Sagittaria pygmaea, L. [10]; Rate 0.0313 kg/ha)
7.0: herbicidal effect rating, CYPSE ([3]; 0.0313 kg/ha) | herbicidal effect rating, CYPSE ([3]; 0.0625 kg/ha) | herbicidal effect rating, CYPSE ([3]; 0.2500 kg/ha) | herbicidal effect rating, ORYSAT (rice tolerance) ([11]; 0.1250 kg/ha) | herbicidal effect rating, ORYSAT (rice tolerance) ([11]; 0.2500 kg/ha) | herbicidal effect rating, ORYSAT (rice tolerance) ([12]; Rate 0.0313 kg/ha) | herbicidal effect rating, ORYSAT (rice tolerance) ([12]; Rate 0.0625 kg/ha) | herbicidal effect rating, ORYSAT (rice tolerance) ([12]; Rate 0.1250 kg/ha) | herbicidal effect rating, ORYSAT (rice tolerance) ([12]; Rate 0.2500 kg/ha)
8.0: herbicidal effect rating, CYPSE ([3]; 0.1250 kg/ha) | herbicidal effect rating, SAGPY (Sagittaria pygmaea, L. [5]; 0.0625 kg/ha) | herbicidal effect rating, CYPSE ([8]; Rate 0.5000 kg/ha) | herbicidal effect rating, ORYSAT (rice tolerance) ([11]; 0.0625 kg/ha) | herbicidal effect rating, ORYSAT (rice tolerance) ([12]; Rate 0.5000 kg/ha)
2.0: herbicidal effect rating, CYPSE ([8]; Rate 0.0313 kg/ha) | herbicidal effect rating, SAGPY (Sagittaria pygmaea, L. [10]; Rate 0.0625 kg/ha)
9.0: herbicidal effect rating, ECHORC ([1]; 0.0313 kg/ha) | herbicidal effect rating, ECHORC ([1]; 0.0625 kg/ha) | herbicidal effect rating, ECHORC ([1]; 0.1250 kg/ha) | herbicidal effect rating, ECHORC ([1]; 0.2500 kg/ha) | herbicidal effect rating, ECHORC ([1]; 0.5000 kg/ha) | herbicidal effect rating, CYPIR (Cyperus iria [2]; 0.0313 kg/ha) | herbicidal effect rating, CYPIR (Cyperus iria [2]; 0.0625 kg/ha) | herbicidal effect rating, CYPIR (Cyperus iria [2]; 0.1250 kg/ha) | herbicidal effect rating, CYPIR (Cyperus iria [2]; 0.2500 kg/ha) | herbicidal effect rating, CYPIR (Cyperus iria [2]; 0.5000 kg/ha) | herbicidal effect rating, CYPSE ([3]; 0.5000 kg/ha) | herbicidal effect rating, MOOVA ([4]; 0.0313 kg/ha) | herbicidal effect rating, MOOVA ([4]; 0.0625 kg/ha) | herbicidal effect rating, MOOVA ([4]; 0.1250 kg/ha) | herbicidal effect rating, MOOVA ([4]; 0.2500 kg/ha) | herbicidal effect rating, MOOVA ([4]; 0.5000 kg/ha) | herbicidal effect rating, SAGPY (Sagittaria pygmaea, L. [5]; 0.1250 kg/ha) | herbicidal effect rating, SAGPY (Sagittaria pygmaea, L. [5]; 0.2500 kg/ha) | herbicidal effect rating, SAGPY (Sagittaria pygmaea, L. [5]; 0.5000 kg/ha) | herbicidal effect rating, ECHORC ([6]; Rate 0.0313 kg/ha) | herbicidal effect rating, ECHORC ([6]; Rate 0.0625 kg/ha) | herbicidal effect rating, ECHORC ([6]; Rate 0.1250 kg/ha) | herbicidal effect rating, ECHORC ([6]; Rate 0.2500 kg/ha) | herbicidal effect rating, ECHORC ([6]; Rate 0.5000 kg/ha) | herbicidal effect rating, CYPIR (Cyperus iria [7]; Rate 0.0313 kg/ha) | herbicidal effect rating, CYPIR (Cyperus iria [7]; Rate 0.0625 kg/ha) | herbicidal effect rating, CYPIR (Cyperus iria [7]; Rate 0.1250 kg/ha) | herbicidal effect rating, CYPIR (Cyperus iria [7]; Rate 0.2500 kg/ha) | herbicidal effect rating, CYPIR (Cyperus iria [7]; Rate 0.5000 kg/ha) | herbicidal effect rating, CYPSE ([8]; Rate 0.1250 kg/ha) | herbicidal effect rating, CYPSE ([8]; Rate 0.2500 kg/ha) | herbicidal effect rating, MOOVA ([9]; Rate 0.0313 kg/ha) | herbicidal effect rating, MOOVA ([9]; Rate 0.0625 kg/ha) | herbicidal effect rating, MOOVA ([9]; Rate 0.1250 kg/ha) | herbicidal effect rating, MOOVA ([9]; Rate 0.2500 kg/ha) | herbicidal effect rating, MOOVA ([9]; Rate 0.5000 kg/ha) | herbicidal effect rating, SAGPY (Sagittaria pygmaea, L. [10]; Rate 0.2500 kg/ha) | herbicidal effect rating, SAGPY (Sagittaria pygmaea, L. [10]; Rate 0.5000 kg/ha) | herbicidal effect rating, ORYSAT (rice tolerance) ([11]; 0.5000 kg/ha)
